# From patent US20090181934A1, “Organic Compounds” (Novartis AG, priority 2007, published 2009)
# Where a name gives a salt, the structure may show the parent alone.
# Target: adenosine A2A receptor (Homo sapiens, UniProt P29274)
# Experiment: adenosine A2A receptor agonist assay (method of Murphree et al)
# Format: binding
# Settings: method of L. J. Murphree et al, Molecular Pharmacology 61, 455-462 (2002)
# From the text: The compounds of (A) activate the adenosine […] receptor, i.e. they act as A2A receptor agonists.
# adenosine A2A receptor, sequence (P29274 whole entry): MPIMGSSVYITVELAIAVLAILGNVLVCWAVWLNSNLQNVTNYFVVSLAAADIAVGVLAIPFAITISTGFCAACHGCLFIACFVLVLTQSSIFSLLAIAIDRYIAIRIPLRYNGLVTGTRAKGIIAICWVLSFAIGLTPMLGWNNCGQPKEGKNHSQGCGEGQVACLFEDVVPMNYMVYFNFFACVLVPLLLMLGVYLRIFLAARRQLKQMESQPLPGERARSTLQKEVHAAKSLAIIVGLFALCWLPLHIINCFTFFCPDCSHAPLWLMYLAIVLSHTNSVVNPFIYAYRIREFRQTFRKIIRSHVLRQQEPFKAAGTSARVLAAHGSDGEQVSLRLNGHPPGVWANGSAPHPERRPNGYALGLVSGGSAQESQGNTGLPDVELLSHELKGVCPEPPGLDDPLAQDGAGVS
structure (smiles),measurement,value
"COC(=O)N[C@H]1C[C@@H](n2cnc3c(NCC(c4ccccc4)c4ccccc4)nc(N4CC[C@@H](NC(=O)Nc5cccnc5)C4)nc32)[C@H](O)[C@@H]1O [Example 1, ((1S,2R,3S,4R)-4-{6-(2,2-Diphenyl-ethylamino)-2-[(R)-3-(3-pyridin-3-yl-ureido)-pyrrolidin-1-yl]-purin-9-yl}-2,3-dihydroxy-cyclopentyl)-carbamic acid methyl ester hydrochloride]",Ki,4 nM
